# In US9550752B2, “Triazolinthione derivatives” (priority 2013, dated 2017):
# Like-named read-outs stand apart in the source and are kept apart here. Marks after values point to notes of the source that are not given here.
# Tests used:
# Pyricularia oryzae = type: in vivo; settings: 500 ppm of active ingredient; rice, preventive; evaluated 8 days after inoculation
# Botrytis cinerea = test: In vivo preventive test on Botrytis cinerea (grey mould); settings: 100 ppm of active ingredient; gherkin plants, preventive spray; evaluated 4 to 5 days after inoculation
# Description: (§1) The young plants of gherkin are treated by spraying the active ingredient prepared as described above. Control plants are treated only with an aqueous solution of acetone/Dimethyl sulfoxide/tween®. After 24 hours, the plants are contaminated by spraying the leaves with an aqueous suspension of Botrytis cinerea spores.
# Pyrenophora teres = test: In vivo preventive test on Pyrenophora teres (net blotch on barley); settings: 500 ppm of active ingredient; barley plants, preventive spray; evaluated 14 days after inoculation
# Description: as §1, with “barley” for “gherkin”, “Pyrenophora teres” for “Botrytis cinerea”
# [1] = reversed phase HPLC column, pH 2.7
# [2] = method [a]: pH 2.7, Table 4, formula (XII)
structure (smiles),measurement,setting,value
"OC(Cc1ccncc1Cl)(Cn1nc[nH]c1=S)C1(Cl)CC1 (stereo not drawn) [Example I-3, 2-[2-(1-chlorocyclopropyl)-3-(3-chloropyridin-4-yl)-2-hydroxypropyl]-2,4-dihydro-3H-1,2,4-triazole-3-thione]",chromatographic logP,physchem; [1],2.01
OC(Cc1cccnc1Cl)(Cn1ncnc1S)C1(F)CC1 (stereo not drawn) [Example I-11],biological efficacy,Pyricularia oryzae,≥ 90%
same,LogP,pH 2.7,1.76^[a]
OC(Cc1ccncc1Cl)(Cn1ncnc1S)C1(F)CC1 (stereo not drawn) [Example I-13],biological efficacy,Botrytis cinerea,≥ 90%
same,LogP,pH 2.7,1.63^[a]
CCC(C)(C)C(O)(Cc1ccncc1F)Cn1ncnc1S (stereo not drawn) [Example I-17],biological efficacy,Pyrenophora teres,≥ 90%
same,LogP,pH 2.7,2.14^[a]
"O=C(Cc1cccnc1Cl)C1(Cl)CC1 [Example V-3, 1-(1-chlorocyclopropyl)-2-(2-chloropyridin-3-yl)ethanone]",chromatographic logP,physchem; pH 2.7,2.2
same,chromatographic logP,physchem; pH 7.8,2.21
CCC(C)(C)C1(Cc2cc(Cl)ncc2F)CO1 (stereo not drawn) [XII-27],LogP,[2],3.89^[a]
CC(C)(C)C1(Cc2cc(Cl)ncc2F)CO1 (stereo not drawn) [XII-28],LogP,[2],3.42^[a]
CC(C)C(C)(C)C1(Cc2ccncc2Cl)CO1 (stereo not drawn) [XII-30],LogP,[2],3.75^[a]
CCC(C)(C)C1(Cc2ccncc2Cl)CO1 (stereo not drawn) [XII-34],LogP,[2],3.33^[a]
CC(C)(C)C1(Cc2cc(F)ncc2Cl)CO1 (stereo not drawn) [XII-38],LogP,[2],3.65^[a]
CCC(C)(C)C1(Cc2cc(F)ncc2Cl)CO1 (stereo not drawn) [XII-40],LogP,[2],4.17^[a]
CC(C)(C)C1(Cc2ccnc(Cl)c2F)CO1 (stereo not drawn) [XII-46],LogP,[2],3.37^[a]
CC(C)(C)C1(Cc2c(Cl)cncc2Cl)CO1 (stereo not drawn) [XII-52],LogP,[2],3.89^[a]
CCC(C)(C)C1(Cc2c(Cl)cncc2Cl)CO1 (stereo not drawn) [XII-54],LogP,[2],4.41^[a]
CCCC(C)(C)C1(Cc2ccncc2Cl)CO1 (stereo not drawn) [XII-57],LogP,[2],2.03^[a]
OC(CCl)(Cc1cc(Cl)nc(Cl)c1)C1(Cl)CC1 (stereo not drawn) [XV-1],LogP,pH 2.7,3.85^[a]
"OC(Cc1ccncc1Cl)(Cn1cncn1)C1(Cl)CC1 (stereo not drawn) [XXI-5, 2-(1-chlorocyclopropyl)-1-(3-chloropyridin-4-yl)-3-(1H-1,2,4-triazol-1-yl)propan-2-ol]",chromatographic logP,physchem; [1],1.67
same,chromatographic logP,"physchem; reversed phase HPLC column, pH 7.8",1.75
CC(C)(C)C(O)(Cc1cnc2ccccc2c1)Cn1cncn1 (stereo not drawn) [XXI-8],LogP,pH 2.7,1.18^[a]
CC(C)(C)C(O)(Cc1ccc(Cl)nc1)Cn1cncn1 (stereo not drawn) [XXI-9],LogP,pH 2.7,1.98^[a]
same,LogP,pH 7.8,1.98^[b];
CC(C)(C)C(O)(Cc1cccnc1Cl)Cn1cncn1 (stereo not drawn) [XXI-10],LogP,pH 2.7,1.94^[a]
same,LogP,pH 7.8,1.90^[b];
CC(C)(C)C(O)(Cc1ccncc1Cl)Cn1cncn1 (stereo not drawn) [XXI-11],LogP,pH 2.7,1.74^[a]
CCC(C)(C)C(O)(Cc1ccncc1Cl)Cn1cncn1 (stereo not drawn) [XXI-12],LogP,pH 2.7,2.13^[a]
Cc1cc(C(O)(Cc2ccncc2Cl)Cn2cncn2)nn1C (stereo not drawn) [XXI-71],LogP,pH 2.7,0.84^[a]
OC(Cc1ccc(Cl)cn1)(Cn1cncn1)C1(Cl)CC1 (stereo not drawn) [XXI-72],LogP,pH 2.7,2.23^[a]
OC(CCc1ccccc1Cl)(Cc1ccncc1Cl)Cn1cncn1 (stereo not drawn) [XXI-73],LogP,pH 2.7,2.29^[a]
OC(CCc1ccc(Cl)cc1)(Cc1ccncc1Cl)Cn1cncn1 (stereo not drawn) [XXI-74],LogP,pH 2.7,2.40^[a]
CC(C)(Oc1ccc(Cl)cc1)C(O)(Cc1ccncc1Cl)Cn1cncn1 (stereo not drawn) [XXI-75],LogP,pH 2.7,2.84^[a]
OC(Cc1nccnc1Br)(Cn1cncn1)C1(Cl)CC1 (stereo not drawn) [XXI-76],LogP,pH 2.7,1.96^[a]
COc1nccnc1CC(O)(Cn1cncn1)C1(Cl)CC1 (stereo not drawn) [XXI-77],LogP,pH 2.7,1.88^[a]
OC(Cc1ccccc1F)(Cc1cc(Cl)ncc1F)Cn1cncn1 (stereo not drawn) [XXI-78],LogP,pH 2.7,2.34^[a]
OC(Cc1cccc(Cl)c1)(Cc1cc(Cl)ncc1F)Cn1cncn1 (stereo not drawn) [XXI-79],LogP,pH 2.7,2.69^[a]
OC(Cc1ccc(F)cc1)(Cc1ccncc1Cl)Cn1cncn1 (stereo not drawn) [XXI-80],LogP,pH 2.7,1.93^[a]
CC(C)(F)C(O)(Cc1ccncc1Cl)Cn1cncn1 (stereo not drawn) [XXI-81],LogP,pH 2.7,1.20^[a]
OC(Cc1ccncc1Cl)(Cn1cncn1)C1CCC1 (stereo not drawn) [XXI-82],LogP,pH 2.7,1.46^[a]
OC(Cc1ccncc1Cl)(Cn1cncn1)C1(c2ccccc2)CC1 (stereo not drawn) [XXI-83],LogP,pH 2.7,2.23^[a]
OC(COc1ccc(F)cc1)(Cc1ccncc1Cl)Cn1cncn1 (stereo not drawn) [XXI-84],LogP,pH 2.7,1.86^[a]
OC(Cc1ccncc1Cl)(Cn1cncn1)c1ccc2oc3ccccc3c2c1 (stereo not drawn) [XXI-85],LogP,"method [a]: pH 2.7, 0.1% formic acid in water/acetonitrile, Table 2, formula (XXI)",2.40^[a]
OC(Cc1ccncc1C(F)(F)F)(Cn1cncn1)C1(Cl)CC1 (stereo not drawn) [XXI-86],LogP,pH 2.7,2.08^[a]
OC(Cc1ccnc(Cl)c1Cl)(Cn1cncn1)C1(Cl)CC1 (stereo not drawn) [XXI-87],LogP,pH 2.7,2.39^[a]
OC(Cc1cc(Cl)cnc1Cl)(Cn1cncn1)C1(Cl)CC1 (stereo not drawn) [XXI-88],LogP,pH 2.7,2.53^[a]
Cc1cccc2cc(CC(O)(Cn3cncn3)C3(Cl)CC3)c(Cl)nc12 (stereo not drawn) [XXI-89],LogP,pH 2.7,3.53^[a]
OC(Cc1ccccc1F)(Cc1ccnc(Cl)c1F)Cn1cncn1 (stereo not drawn) [XXI-90],LogP,pH 2.7,1.73^[a]
OC(Cc1ccnc(Cl)c1F)(Cn1cncn1)c1ccc(Cl)nc1 (stereo not drawn) [XXI-91],LogP,pH 2.7,1.23^[a]
OC(Cc1ccnc(Cl)c1F)(Cn1cncn1)C1(F)CC1 (stereo not drawn) [XXI-92],LogP,pH 2.7,1.23^[a]
OC(Cc1cccc(Cl)c1)(Cc1ccnc(Cl)c1F)Cn1cncn1 (stereo not drawn) [XXI-93],LogP,pH 2.7,2.02^[a]
OC(Cc1cc(F)ncc1Cl)(Cn1cncn1)C1(Cl)CC1 (stereo not drawn) [XXI-94],LogP,pH 2.7,2.30^[a]
CC(C)(CCl)C(O)(Cc1ccncc1Cl)Cn1cncn1 (stereo not drawn) [XXI-95],LogP,pH 2.7,1.76^[a]
same,LogP,pH 7.8,1.96^[b];
CC(C)(Oc1ccc(F)cc1)C(O)(Cc1ccncc1Cl)Cn1cncn1 (stereo not drawn) [XXI-96],LogP,pH 2.7,2.48^[a]
same,LogP,pH 7.8,2.60^[b];
